Test results: publication PMC10174618, “Monoterpenoid aryl hydrocarbon receptor allosteric antagonists protect against ultraviolet skin damage in female mice” (Nature Communications, 2023)

Assays:
Experiment in all cases: biochemical
Design in all cases: KINOMEscan scanMAX active site-directed competition binding assay, percent of control, 468 kinases
Conditions in all cases: competition binding, percent of control
[1] = biological target: T1, RPS6KA5(Kin.Dom.2-C-terminal) (Homo sapiens, UniProt O75582)
T1 construct: Kin.Dom.2-C-terminal
T1 sequence (O75582 whole entry): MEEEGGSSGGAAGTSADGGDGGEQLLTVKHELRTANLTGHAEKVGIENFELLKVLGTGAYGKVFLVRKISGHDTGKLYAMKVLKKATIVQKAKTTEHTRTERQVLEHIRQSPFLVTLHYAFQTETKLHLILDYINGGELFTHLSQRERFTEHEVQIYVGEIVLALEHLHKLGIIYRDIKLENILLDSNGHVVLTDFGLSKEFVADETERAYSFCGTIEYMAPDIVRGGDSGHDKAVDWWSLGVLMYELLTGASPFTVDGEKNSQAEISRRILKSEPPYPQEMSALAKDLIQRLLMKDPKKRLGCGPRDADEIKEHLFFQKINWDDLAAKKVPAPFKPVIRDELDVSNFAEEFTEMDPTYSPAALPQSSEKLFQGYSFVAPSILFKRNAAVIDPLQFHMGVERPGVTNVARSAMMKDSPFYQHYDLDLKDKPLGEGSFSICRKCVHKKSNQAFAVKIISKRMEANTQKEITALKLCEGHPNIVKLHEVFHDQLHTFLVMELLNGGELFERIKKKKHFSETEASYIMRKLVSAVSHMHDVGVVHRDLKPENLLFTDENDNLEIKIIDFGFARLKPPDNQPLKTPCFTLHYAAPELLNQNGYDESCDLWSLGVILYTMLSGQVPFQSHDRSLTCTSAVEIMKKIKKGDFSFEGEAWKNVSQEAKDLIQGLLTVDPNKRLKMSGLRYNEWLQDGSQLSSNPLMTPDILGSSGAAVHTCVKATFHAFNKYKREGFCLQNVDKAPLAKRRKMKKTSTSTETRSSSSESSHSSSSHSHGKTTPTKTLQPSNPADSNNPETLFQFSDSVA
In short: (§1)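 Single-concentration screen (100 μM S-carvone) in a competition binding panel of 468 human kinases (KINOMEscan scanMAX); results given as percent of control, hit cutoff 35%.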

IGF1R = IGF1R (Homo sapiens, UniProt P08069)
Chain of IGF1R (P08069 whole entry): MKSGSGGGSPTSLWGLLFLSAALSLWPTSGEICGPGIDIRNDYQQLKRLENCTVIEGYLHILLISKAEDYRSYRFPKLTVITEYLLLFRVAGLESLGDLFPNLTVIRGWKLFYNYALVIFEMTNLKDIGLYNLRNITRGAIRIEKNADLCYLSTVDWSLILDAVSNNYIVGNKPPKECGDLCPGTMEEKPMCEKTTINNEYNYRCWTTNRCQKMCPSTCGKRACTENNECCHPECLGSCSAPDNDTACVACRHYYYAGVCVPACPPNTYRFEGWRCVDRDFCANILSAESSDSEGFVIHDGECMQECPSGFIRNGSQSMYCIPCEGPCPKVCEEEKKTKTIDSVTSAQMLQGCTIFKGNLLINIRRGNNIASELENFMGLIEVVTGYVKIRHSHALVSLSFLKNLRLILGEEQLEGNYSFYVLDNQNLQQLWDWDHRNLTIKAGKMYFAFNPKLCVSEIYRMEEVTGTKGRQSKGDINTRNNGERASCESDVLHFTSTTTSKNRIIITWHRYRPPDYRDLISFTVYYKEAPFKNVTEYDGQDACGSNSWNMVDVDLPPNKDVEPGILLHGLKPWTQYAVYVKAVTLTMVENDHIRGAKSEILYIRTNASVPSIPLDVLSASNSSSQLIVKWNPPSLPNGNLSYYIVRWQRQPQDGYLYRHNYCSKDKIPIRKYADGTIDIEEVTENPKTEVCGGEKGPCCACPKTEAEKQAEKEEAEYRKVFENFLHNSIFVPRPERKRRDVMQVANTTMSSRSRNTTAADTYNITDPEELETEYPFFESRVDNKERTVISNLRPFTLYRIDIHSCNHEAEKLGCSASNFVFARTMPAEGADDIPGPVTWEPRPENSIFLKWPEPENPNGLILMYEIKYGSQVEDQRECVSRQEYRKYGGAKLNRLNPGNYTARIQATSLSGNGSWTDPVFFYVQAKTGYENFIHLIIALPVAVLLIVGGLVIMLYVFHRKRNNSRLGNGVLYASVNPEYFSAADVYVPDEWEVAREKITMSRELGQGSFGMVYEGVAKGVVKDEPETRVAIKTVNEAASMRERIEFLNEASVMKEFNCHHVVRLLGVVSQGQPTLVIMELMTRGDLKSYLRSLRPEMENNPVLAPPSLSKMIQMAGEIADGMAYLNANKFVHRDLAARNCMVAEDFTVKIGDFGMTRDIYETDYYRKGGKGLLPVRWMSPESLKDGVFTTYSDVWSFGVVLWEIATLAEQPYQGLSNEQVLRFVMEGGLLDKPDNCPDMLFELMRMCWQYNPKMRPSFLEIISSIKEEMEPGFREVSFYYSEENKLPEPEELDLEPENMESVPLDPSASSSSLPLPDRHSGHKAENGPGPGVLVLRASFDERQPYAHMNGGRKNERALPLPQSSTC
In short: as §1

PRKD1 = PRKD1 (Homo sapiens, UniProt Q15139)
Chain of PRKD1 (Q15139 whole entry): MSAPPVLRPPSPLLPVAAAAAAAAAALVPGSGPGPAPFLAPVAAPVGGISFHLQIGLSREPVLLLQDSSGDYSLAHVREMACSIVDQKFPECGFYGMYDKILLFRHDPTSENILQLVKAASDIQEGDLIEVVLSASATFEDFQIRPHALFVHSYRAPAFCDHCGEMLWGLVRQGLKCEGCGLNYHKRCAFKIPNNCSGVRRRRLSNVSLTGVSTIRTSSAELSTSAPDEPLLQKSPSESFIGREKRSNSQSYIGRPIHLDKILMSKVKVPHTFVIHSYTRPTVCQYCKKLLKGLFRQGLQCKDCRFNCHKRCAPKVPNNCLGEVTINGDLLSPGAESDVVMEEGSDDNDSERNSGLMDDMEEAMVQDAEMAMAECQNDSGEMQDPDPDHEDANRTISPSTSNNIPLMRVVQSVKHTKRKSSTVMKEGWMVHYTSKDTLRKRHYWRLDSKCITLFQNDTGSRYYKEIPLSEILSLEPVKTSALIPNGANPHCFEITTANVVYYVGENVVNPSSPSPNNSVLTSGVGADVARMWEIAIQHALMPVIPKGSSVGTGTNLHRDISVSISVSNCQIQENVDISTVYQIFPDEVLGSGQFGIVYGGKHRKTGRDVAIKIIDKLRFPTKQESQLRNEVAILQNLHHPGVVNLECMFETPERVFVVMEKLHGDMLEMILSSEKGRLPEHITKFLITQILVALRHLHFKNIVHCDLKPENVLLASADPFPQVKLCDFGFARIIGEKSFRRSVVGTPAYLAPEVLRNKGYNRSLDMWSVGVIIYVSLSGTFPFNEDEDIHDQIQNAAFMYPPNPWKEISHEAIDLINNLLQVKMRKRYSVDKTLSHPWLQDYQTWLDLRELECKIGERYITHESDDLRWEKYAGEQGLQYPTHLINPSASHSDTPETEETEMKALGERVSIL
In short: as §1

MUSK = MUSK (Homo sapiens, UniProt O15146)
In short: as §1

TYRO3 = TYRO3 (Homo sapiens, UniProt Q06418)
In short: as §1

TRKB = biological target: T2, TRKB (Homo sapiens, UniProt Q16620)
T2 construct: gene NTRK2
T2 sequence (Q16620 whole entry): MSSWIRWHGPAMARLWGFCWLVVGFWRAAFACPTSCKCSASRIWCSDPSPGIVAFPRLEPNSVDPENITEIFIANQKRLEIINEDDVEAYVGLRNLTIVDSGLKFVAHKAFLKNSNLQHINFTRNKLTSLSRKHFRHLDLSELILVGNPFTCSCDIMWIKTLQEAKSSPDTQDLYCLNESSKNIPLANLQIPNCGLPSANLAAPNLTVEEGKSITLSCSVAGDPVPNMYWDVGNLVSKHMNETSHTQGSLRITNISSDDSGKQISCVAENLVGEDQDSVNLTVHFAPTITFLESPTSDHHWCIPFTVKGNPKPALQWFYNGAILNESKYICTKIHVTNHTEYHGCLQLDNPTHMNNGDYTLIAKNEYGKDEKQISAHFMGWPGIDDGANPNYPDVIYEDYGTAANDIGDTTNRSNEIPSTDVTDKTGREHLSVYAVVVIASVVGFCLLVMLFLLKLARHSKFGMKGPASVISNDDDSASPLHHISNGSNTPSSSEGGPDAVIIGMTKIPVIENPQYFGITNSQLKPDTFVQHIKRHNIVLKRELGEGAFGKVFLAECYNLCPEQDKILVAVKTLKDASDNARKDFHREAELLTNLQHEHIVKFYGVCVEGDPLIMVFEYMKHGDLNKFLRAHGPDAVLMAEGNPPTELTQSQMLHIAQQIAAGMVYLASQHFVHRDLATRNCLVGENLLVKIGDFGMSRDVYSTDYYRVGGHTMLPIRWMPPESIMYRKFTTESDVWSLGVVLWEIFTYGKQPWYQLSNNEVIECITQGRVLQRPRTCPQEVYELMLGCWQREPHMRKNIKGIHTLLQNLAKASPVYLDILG
In short: as §1

HPK1 = biological target: T3, HPK1 (Homo sapiens, UniProt Q92918)
T3 construct: gene MAP4K1
In short: as §1

FGFR4 = FGFR4 (Homo sapiens, UniProt P22455)
In short: as §1

CDKL1 = CDKL1 (Homo sapiens, UniProt Q00532)
Chain of CDKL1 (Q00532 whole entry): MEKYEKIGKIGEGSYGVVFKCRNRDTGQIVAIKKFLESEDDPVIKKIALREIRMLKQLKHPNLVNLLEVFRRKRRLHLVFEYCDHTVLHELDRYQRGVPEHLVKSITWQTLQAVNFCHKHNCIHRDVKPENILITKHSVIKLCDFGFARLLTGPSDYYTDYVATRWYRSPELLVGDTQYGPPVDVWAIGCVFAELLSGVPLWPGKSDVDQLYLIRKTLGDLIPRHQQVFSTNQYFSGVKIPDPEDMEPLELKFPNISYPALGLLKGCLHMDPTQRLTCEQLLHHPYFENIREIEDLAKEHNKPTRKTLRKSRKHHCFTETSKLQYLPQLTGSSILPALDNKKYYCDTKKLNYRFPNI
In short: as §1

CDKL2 = CDKL2 (Homo sapiens, UniProt Q92772)
In short: as §1

MEK1 = biological target: T4, MEK1 (Homo sapiens, UniProt Q02750)
T4 construct: gene MAP2K1
In short: as §1

DCAMKL3 = biological target: T5, DCAMKL3 (Homo sapiens, UniProt Q9C098)
T5 construct: gene DCLK3
In short: as §1

FLT3-autoinhibited = FLT3-autoinhibited (Homo sapiens, UniProt P36888)
In short: as §1

PDGFRB = PDGFRB (Homo sapiens, UniProt P09619)
In short: as §1

SIK = biological target: T6, SIK (Homo sapiens, UniProt P57059)
T6 construct: gene SIK1
In short: as §1

SNRK = SNRK (Homo sapiens, UniProt Q9NRH2)
In short: as §1

AKT1 = AKT1 (Homo sapiens, UniProt P31749)
In short: as §1

IRAK1 = IRAK1 (Homo sapiens, UniProt P51617)
In short: as §1

BTK = BTK (Homo sapiens, UniProt Q06187)
Chain of BTK (Q06187 whole entry): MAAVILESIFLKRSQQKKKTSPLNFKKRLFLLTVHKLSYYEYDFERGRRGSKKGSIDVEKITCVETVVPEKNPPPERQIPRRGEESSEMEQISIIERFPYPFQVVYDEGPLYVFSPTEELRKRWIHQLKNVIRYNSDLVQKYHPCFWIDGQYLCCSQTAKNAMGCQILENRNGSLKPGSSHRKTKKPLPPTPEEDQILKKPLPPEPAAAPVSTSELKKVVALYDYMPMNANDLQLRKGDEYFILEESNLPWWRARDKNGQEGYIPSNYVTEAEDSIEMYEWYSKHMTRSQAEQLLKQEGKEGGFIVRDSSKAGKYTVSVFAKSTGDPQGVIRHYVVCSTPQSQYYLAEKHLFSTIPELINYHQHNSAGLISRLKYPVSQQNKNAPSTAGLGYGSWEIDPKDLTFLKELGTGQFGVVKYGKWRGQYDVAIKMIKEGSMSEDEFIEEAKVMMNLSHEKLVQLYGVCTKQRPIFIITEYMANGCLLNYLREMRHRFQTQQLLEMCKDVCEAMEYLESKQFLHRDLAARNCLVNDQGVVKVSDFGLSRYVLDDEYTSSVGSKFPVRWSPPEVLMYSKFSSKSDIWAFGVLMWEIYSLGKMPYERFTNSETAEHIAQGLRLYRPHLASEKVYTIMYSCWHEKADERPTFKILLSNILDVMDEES
In short: as §1

ANKK1 = ANKK1 (Homo sapiens, UniProt Q8NFD2)
In short: as §1

DCAMKL1 = biological target: T7, DCAMKL1 (Homo sapiens, UniProt O15075)
T7 construct: gene DCLK1
In short: as §1

YANK2 = biological target: T8, YANK2 (Homo sapiens, UniProt Q9NY57)
T8 construct: gene STK32B
In short: as §1

remaining binding at 100 µM [1]: 85% | remaining binding at 100 µM (IGF1R): 82% | remaining binding at 100 µM (PRKD1): 61% | remaining binding at 100 µM (MUSK): 100% | remaining binding at 100 µM (TYRO3): 87% | remaining binding at 100 µM (TRKB): 78% | remaining binding at 100 µM (HPK1): 80% | remaining binding at 100 µM (FGFR4): 92% | remaining binding at 100 µM (CDKL1): 70% | remaining binding at 100 µM (CDKL2): 85% | remaining binding at 100 µM (MEK1): 71% | remaining binding at 100 µM (DCAMKL3): 75% | remaining binding at 100 µM (FLT3-autoinhibited): 67% | remaining binding at 100 µM (PDGFRB): 69% | remaining binding at 100 µM (SIK): 67% | remaining binding at 100 µM (SNRK): 75% | remaining binding at 100 µM (AKT1): 84% | remaining binding at 100 µM (IRAK1): 65% | remaining binding at 100 µM (BTK): 70% | remaining binding at 100 µM (ANKK1): 91% | remaining binding at 100 µM (DCAMKL1): 85% | remaining binding at 100 µM (YANK2): 79%
SMILES: C=C(C)[C@H]1CC=C(C)C(=O)C1 [S-carvone]
